Test: xn = mol fraction of the nth substance listed
Conditions: 101 kPa, Liquid; for electrical conductivity: Alternating current cell with electrodes; for speed of sound: Frequency=3 MHz, Sing-around technique in a fixed-path interferometer; for mass density: Vibrating tube method

C[C@H](O)C(=O)[O-].C[N+](C)(C)CCO + O
Conditions | electrical conductivity [S/m] | mass density [kg/m3] | speed of sound [m/s]
293.15 K, x1 = 0.0258 | 3 | 1036.96 | 1660.5
293.15 K, x1 = 0.0511 | 2.99 | 1063.09 | 1783.4
293.15 K, x1 = 0.074 | 2.55 | 1083.32 | 1872.8
293.15 K, x1 = 0.1027 | 1.91 | 1098.55 | 1930.6
293.15 K, x1 = 0.1443 | – | 1111.86 | 1988.4
293.15 K, x1 = 0.1965 | 0.806 | 1122.77 | 1987.8
293.15 K, x1 = 0.2705 | – | 1132.07 | 1989.4
293.15 K, x1 = 0.2957 | 0.344 | 1133.96 | 1985.2
293.15 K, x1 = 0.3897 | – | 1138.61 | 1975.3
293.15 K, x1 = 0.5347 | 0.079 | 1140.95 | 1955.9
293.15 K, x1 = 0.6044 | 0.059 | 1141.68 | 1952.1
293.15 K, x1 = 0.6931 | 0.037 | 1141.39 | 1942.5
293.15 K, x1 = 0.7565 | – | 1141.84 | 1943.3
293.15 K, x1 = 0.798 | 0.018 | – | –
293.15 K, x1 = 0.8375 | – | 1142.39 | 1942.6
293.15 K, x1 = 0.8996 | 0.01 | 1142.96 | 1938.8
293.15 K, x1 = 0.94 | – | 1143.25 | 1945.2
293.15 K, x1 = 0.9611 | – | 1143.37 | 1944.8
298.15 K, x1 = 0.0258 | 3.35 | 1035.09 | 1665.3
298.15 K, x1 = 0.0511 | 3.42 | 1060.72 | 1781.5
298.15 K, x1 = 0.074 | 2.85 | 1080.6 | 1866
298.15 K, x1 = 0.1027 | 2.29 | 1095.58 | 1920.6
298.15 K, x1 = 0.1443 | – | 1108.71 | 1968.2
298.15 K, x1 = 0.1965 | 1.01 | 1119.53 | 1974.6
298.15 K, x1 = 0.2705 | – | 1128.8 | 1970.9
298.15 K, x1 = 0.2957 | 0.405 | 1130.7 | 1971.5
298.15 K, x1 = 0.3897 | – | 1135.35 | 1957.2
298.15 K, x1 = 0.5347 | 0.108 | 1137.68 | 1941.6
298.15 K, x1 = 0.6044 | 0.089 | 1138.43 | 1937.4
298.15 K, x1 = 0.6931 | 0.046 | 1138.13 | 1927.3
298.15 K, x1 = 0.7565 | – | 1138.58 | 1923.3
298.15 K, x1 = 0.798 | 0.029 | – | –
298.15 K, x1 = 0.8375 | – | 1139.15 | 1922.5
298.15 K, x1 = 0.8996 | 0.017 | 1139.75 | 1922.9
298.15 K, x1 = 0.94 | – | 1140.05 | 1921.7
298.15 K, x1 = 0.9611 | – | 1140.19 | 1919.6
303.15 K, x1 = 0.0258 | 3.68 | 1033.07 | 1669
303.15 K, x1 = 0.0511 | 3.86 | 1058.28 | 1779.1
303.15 K, x1 = 0.074 | 3.23 | 1077.82 | 1858.9
303.15 K, x1 = 0.1027 | 2.57 | 1092.58 | 1910.5
303.15 K, x1 = 0.1443 | – | 1105.56 | 1954.1
303.15 K, x1 = 0.1965 | 1.19 | 1116.28 | 1961.5
303.15 K, x1 = 0.2705 | – | 1125.54 | 1958
303.15 K, x1 = 0.2957 | 0.497 | 1127.45 | 1957.9
303.15 K, x1 = 0.3897 | – | 1132.15 | 1944.6
303.15 K, x1 = 0.5347 | 0.145 | 1134.46 | 1927.8
303.15 K, x1 = 0.6044 | 0.106 | 1135.19 | 1923.5
303.15 K, x1 = 0.6931 | 0.059 | 1134.84 | 1912.9
303.15 K, x1 = 0.7565 | – | 1135.3 | 1909.5
303.15 K, x1 = 0.798 | 0.047 | – | –
303.15 K, x1 = 0.8375 | – | 1135.92 | 1908.6
303.15 K, x1 = 0.8996 | 0.042 | 1136.57 | 1908.1
303.15 K, x1 = 0.94 | – | 1136.9 | 1905.4
303.15 K, x1 = 0.9611 | – | 1137.04 | 1902.3
308.15 K, x1 = 0.0258 | 4 | 1030.91 | 1671.7
308.15 K, x1 = 0.0511 | 4.22 | 1055.74 | 1776
308.15 K, x1 = 0.074 | 3.67 | 1074.99 | 1851.6
308.15 K, x1 = 0.1027 | 2.95 | 1089.55 | 1900.3
308.15 K, x1 = 0.1443 | – | 1102.31 | 1940.6
308.15 K, x1 = 0.1965 | 1.44 | 1113.02 | 1948.6
308.15 K, x1 = 0.2705 | – | 1122.29 | 1945.2
308.15 K, x1 = 0.2957 | 0.622 | 1124.2 | 1944.6
308.15 K, x1 = 0.3897 | – | 1129.04 | 1932
308.15 K, x1 = 0.5347 | 0.194 | 1131.34 | 1914.3
308.15 K, x1 = 0.6044 | 0.138 | 1132.01 | 1909.9
308.15 K, x1 = 0.6931 | 0.073 | 1131.57 | 1899
308.15 K, x1 = 0.7565 | – | 1132.02 | 1896.1
308.15 K, x1 = 0.798 | 0.053 | – | –
308.15 K, x1 = 0.8375 | – | 1132.67 | 1895.2
308.15 K, x1 = 0.8996 | 0.056 | 1133.39 | 1894
308.15 K, x1 = 0.94 | – | 1133.76 | 1890.3
308.15 K, x1 = 0.9611 | – | 1133.93 | 1886.6
313.15 K, x1 = 0.0258 | 4.38 | 1028.62 | 1673.4
313.15 K, x1 = 0.0511 | 4.67 | 1053.12 | 1772.3
313.15 K, x1 = 0.074 | 4.09 | 1072.09 | 1843.8
313.15 K, x1 = 0.1027 | 3.31 | 1086.48 | 1890.1
313.15 K, x1 = 0.1443 | – | 1099.08 | 1927.4
313.15 K, x1 = 0.1965 | 1.65 | 1109.75 | 1935.7
313.15 K, x1 = 0.2705 | – | 1118.95 | 1932.5
313.15 K, x1 = 0.2957 | 0.735 | 1120.95 | 1931.4
313.15 K, x1 = 0.3897 | – | 1125.94 | 1919.3
313.15 K, x1 = 0.5347 | 0.234 | 1128.21 | 1901
313.15 K, x1 = 0.6044 | 0.169 | 1128.91 | 1896.5
313.15 K, x1 = 0.6931 | 0.103 | 1128.31 | 1885.6
313.15 K, x1 = 0.7565 | – | 1128.77 | 1883
313.15 K, x1 = 0.798 | 0.069 | – | –
313.15 K, x1 = 0.8375 | – | 1129.44 | 1882.1
313.15 K, x1 = 0.8996 | 0.071 | 1130.23 | 1880.5
313.15 K, x1 = 0.94 | – | 1130.63 | 1876.1
313.15 K, x1 = 0.9611 | – | 1130.81 | 1872
318.15 K, x1 = 0.0258 | 4.99 | 1026.22 | 1674
318.15 K, x1 = 0.0511 | 5.07 | 1050.42 | 1768.1
318.15 K, x1 = 0.074 | 4.55 | 1069.15 | 1835.9
318.15 K, x1 = 0.1027 | 3.83 | 1083.38 | 1879.8
318.15 K, x1 = 0.1443 | – | 1095.34 | 1914.8
318.15 K, x1 = 0.1965 | 1.92 | 1106.48 | 1922.8
318.15 K, x1 = 0.2705 | – | 1115.26 | 1919.8
318.15 K, x1 = 0.2957 | 0.898 | 1117.03 | 1918.3
318.15 K, x1 = 0.3897 | – | 1122.53 | 1906.8
318.15 K, x1 = 0.5347 | 0.262 | 1125.08 | 1888
318.15 K, x1 = 0.6044 | 0.197 | 1125.81 | 1883.5
318.15 K, x1 = 0.6931 | 0.118 | 1125 | 1872.5
318.15 K, x1 = 0.7565 | – | 1125.55 | 1870.1
318.15 K, x1 = 0.798 | 0.103 | – | –
318.15 K, x1 = 0.8375 | – | 1126.28 | 1869.1
318.15 K, x1 = 0.8996 | 0.084 | 1127.07 | 1867.3
318.15 K, x1 = 0.94 | – | 1127.56 | 1862.4
318.15 K, x1 = 0.9611 | – | 1127.75 | 1858
323.15 K, x1 = 0.0258 | 5.23 | 1023.68 | 1673.8
323.15 K, x1 = 0.0511 | 5.47 | 1047.63 | 1763.2
323.15 K, x1 = 0.074 | 5.09 | 1066.16 | 1827.6
323.15 K, x1 = 0.1027 | 4.26 | 1080.24 | 1869.2
323.15 K, x1 = 0.1443 | – | 1092.47 | 1907
323.15 K, x1 = 0.1965 | 2.18 | 1103.2 | 1910
323.15 K, x1 = 0.2705 | – | 1112.52 | 1911.6
323.15 K, x1 = 0.2957 | 1.01 | 1114.46 | 1905.2
323.15 K, x1 = 0.3897 | – | 1119.8 | 1898.7
323.15 K, x1 = 0.5347 | 0.318 | 1121.95 | 1875
323.15 K, x1 = 0.6044 | 0.235 | 1122.71 | 1870.6
323.15 K, x1 = 0.6931 | 0.151 | 1121.7 | 1859.6
323.15 K, x1 = 0.7565 | – | 1122.21 | 1863
323.15 K, x1 = 0.798 | 0.134 | – | –
323.15 K, x1 = 0.8375 | – | 1123.02 | 1861.8
323.15 K, x1 = 0.8996 | 0.144 | 1123.98 | 1854.4
323.15 K, x1 = 0.94 | – | 1124.48 | 1854.3
323.15 K, x1 = 0.9611 | – | 1124.69 | 1849.7
